Results taken from ChEMBL document CHEMBL3046257, “Response of sweet maize (Zea mays L.) hybrids to halosulfuron” (Crop Prot, 2008).

What was measured:
Format in all cases: organism-based
[1] = tested on: Zea mays; experiment: Toxicity in Zea mays Empire (maize) assessed as visible injury at 50 g ai/ha applied shortly post-emergence at three to five-leaf stage using backpack sprayer measured after 14 days; conditions: in vivo, other, 336 h
[2] = tested on: Zea mays; experiment: Toxicity in Zea mays GH2298 (maize) assessed as visible injury at 50 g ai/ha applied shortly post-emergence at three to five-leaf stage using backpack sprayer measured after 28 days; conditions: in vivo, other, 672 h
[3] = tested on: Zea mays; experiment: Toxicity in Zea mays Empire (maize) assessed as visible injury at 25 g ai/ha applied shortly post-emergence at three to five-leaf stage using backpack sprayer measured after 7 days; conditions: in vivo, other, 168 h
[4] = tested on: Zea mays; experiment: Toxicity in Zea mays GH2298 (maize) assessed as visible injury at 50 g ai/ha applied shortly post-emergence at three to five-leaf stage using backpack sprayer measured after 7 days; conditions: in vivo, other, 168 h
[5] = tested on: Zea mays; experiment: Toxicity in Zea mays GH2041 (maize) assessed as visible injury at 50 g ai/ha applied shortly post-emergence at three to five-leaf stage using backpack sprayer measured after 28 days; conditions: in vivo, other, 672 h
[6] = tested on: Zea mays; experiment: Toxicity in Zea mays GH2041 (maize) assessed as visible injury at 50 g ai/ha applied shortly post-emergence at three to five-leaf stage using backpack sprayer measured after 14 days; conditions: in vivo, other, 336 h
[7] = tested on: Zea mays; experiment: Toxicity in Zea mays GH2041 (maize) assessed as visible injury at 25 g ai/ha applied shortly post-emergence at three to five-leaf stage using backpack sprayer measured after 28 days; conditions: in vivo, other, 672 h
[8] = tested on: Zea mays; experiment: Toxicity in Zea mays GG214 (maize) assessed as visible injury at 50 g ai/ha applied shortly post-emergence at three to five-leaf stage using backpack sprayer measured after 14 days; conditions: in vivo, other, 336 h
[9] = tested on: Zea mays; experiment: Toxicity in Zea mays GG214 (maize) assessed as visible injury at 50 g ai/ha applied shortly post-emergence at three to five-leaf stage using backpack sprayer measured after 7 days; conditions: in vivo, other, 168 h
[10] = tested on: Zea mays; experiment: Toxicity in Zea mays GG214 (maize) assessed as visible injury at 25 g ai/ha applied shortly post-emergence at three to five-leaf stage using backpack sprayer measured after 7 days; conditions: in vivo, other, 168 h
[11] = tested on: Zea mays; experiment: Toxicity in Zea mays GG446 (maize) assessed as visible injury at 50 g ai/ha applied shortly post-emergence at three to five-leaf stage using backpack sprayer measured after 28 days; conditions: in vivo, other, 672 h
[12] = tested on: Zea mays; experiment: Toxicity in Zea mays GG446 (maize) assessed as visible injury at 25 g ai/ha applied shortly post-emergence at three to five-leaf stage using backpack sprayer measured after 28 days; conditions: in vivo, other, 672 h
[13] = tested on: Zea mays; experiment: Toxicity in Zea mays GG446 (maize) assessed as visible injury at 50 g ai/ha applied shortly post-emergence at three to five-leaf stage using backpack sprayer measured after 14 days; conditions: in vivo, other, 336 h
[14] = tested on: Zea mays; experiment: Toxicity in Zea mays GH2547 (maize) assessed as visible injury at 25 g ai/ha applied shortly post-emergence at three to five-leaf stage using backpack sprayer measured after 14 days; conditions: in vivo, other, 336 h
[15] = tested on: Zea mays; experiment: Toxicity in Zea mays GH2041 (maize) assessed as plant height at 25 g ai/ha applied shortly post-emergence at three to five-leaf stage using backpack sprayer measured after 21 days (Rvb =80 cm); conditions: in vivo, other, 504 h
[16] = tested on: Zea mays; experiment: Toxicity in Zea mays GG446 (maize) assessed as plant height at 50 g ai/ha applied shortly post-emergence at three to five-leaf stage using backpack sprayer measured after 21 days (reference value: 85 cm); conditions: in vivo, other, 504 h
[17] = tested on: Zea mays; experiment: Toxicity in Zea mays GH2547 (maize) assessed as visible injury at 25 g ai/ha applied shortly post-emergence at three to five-leaf stage using backpack sprayer measured after 7 days; conditions: in vivo, other, 168 h
[18] = tested on: Zea mays; experiment: Toxicity in Zea mays GG214 (maize) assessed as visible injury at 50 g ai/ha applied shortly post-emergence at three to five-leaf stage using backpack sprayer measured after 28 days; conditions: in vivo, other, 672 h
[19] = tested on: Zea mays; experiment: Toxicity in Zea mays GSS9299 (maize) assessed as marketable yield at 50 g ai/ha applied shortly post-emergence at three to five-leaf stage using backpack sprayer (reference value: 13.2 T/ha ); conditions: in vivo, other
[20] = tested on: Zea mays; experiment: Toxicity in Zea mays Empire (maize) assessed as reduction in marketable yield at 50 g ai/ha applied shortly post-emergence at three to five-leaf stage using backpack sprayer; set-up: scale not given: the % may be the effect or the level left; conditions: in vivo, other
[21] = tested on: Zea mays; experiment: Toxicity in Zea mays GH2298 (maize) assessed as marketable yield at 25 g ai/ha applied shortly post-emergence at three to five-leaf stage using backpack sprayer (reference value: 16.9 T/ha ); conditions: in vivo, other
[22] = tested on: Zea mays; experiment: Toxicity in Zea mays GG446 (maize) assessed as marketable yield at 25 g ai/ha applied shortly post-emergence at three to five-leaf stage using backpack sprayer (reference value: 20.0 T/ha ); conditions: in vivo, other
[23] = tested on: Zea mays; experiment: Toxicity in Zea mays GH2684 (maize) assessed as cob size at 50 g ai/ha applied shortly post-emergence at three to five-leaf stage using backpack sprayer (reference value: 340 g); conditions: in vivo, other
[24] = tested on: Zea mays; experiment: Toxicity in Zea mays GH2684 (maize) assessed as cob size at 25 g ai/ha applied shortly post-emergence at three to five-leaf stage using backpack sprayer (reference value: 340 g); conditions: in vivo, other
[25] = tested on: Zea mays; experiment: Toxicity in Zea mays Empire (maize) assessed as cob size at 50 g ai/ha applied shortly post-emergence at three to five-leaf stage using backpack sprayer (reference value: 304 g); conditions: in vivo, other
[26] = tested on: Zea mays; experiment: Toxicity in Zea mays Empire (maize) assessed as cob size at 25 g ai/ha applied shortly post-emergence at three to five-leaf stage using backpack sprayer (reference value: 304 g); conditions: in vivo, other
[27] = tested on: Zea mays; experiment: Toxicity in Zea mays GG214 (maize) assessed as cob size at 50 g ai/ha applied shortly post-emergence at three to five-leaf stage using backpack sprayer (reference value: 292 g); conditions: in vivo, other
[28] = tested on: Zea mays; experiment: Toxicity in Zea mays GG446 (maize) assessed as plant height at 25 g ai/ha applied shortly post-emergence at three to five-leaf stage using backpack sprayer measured after 21 days (reference value: 85 cm); conditions: in vivo, other, 504 h
[29] = tested on: Zea mays; experiment: Toxicity in Zea mays GSS9299 (maize) assessed as visible injury at 50 g ai/ha applied shortly post-emergence at three to five-leaf stage using backpack sprayer measured after 14 days; conditions: in vivo, other, 336 h
[30] = tested on: Zea mays; experiment: Toxicity in Zea mays GH2684 (maize) assessed as visible injury at 50 g ai/ha applied shortly post-emergence at three to five-leaf stage using backpack sprayer measured after 28 days; conditions: in vivo, other, 672 h
[31] = tested on: Zea mays; experiment: Toxicity in Zea mays GH2684 (maize) assessed as visible injury at 25 g ai/ha applied shortly post-emergence at three to five-leaf stage using backpack sprayer measured after 28 days; conditions: in vivo, other, 672 h
[32] = tested on: Zea mays; experiment: Toxicity in Zea mays GH2684 (maize) assessed as visible injury at 50 g ai/ha applied shortly post-emergence at three to five-leaf stage using backpack sprayer measured after 14 days; conditions: in vivo, other, 336 h
[33] = tested on: Zea mays; experiment: Toxicity in Zea mays GH2684 (maize) assessed as visible injury at 50 g ai/ha applied shortly post-emergence at three to five-leaf stage using backpack sprayer measured after 7 days; conditions: in vivo, other, 168 h
[34] = tested on: Zea mays; experiment: Toxicity in Zea mays GH2298 (maize) assessed as plant height at 50 g ai/ha applied shortly post-emergence at three to five-leaf stage using backpack sprayer measured after 21 days (Rvb =80 cm); conditions: in vivo, other, 504 h

`COc1cc(OC)nc(NC(=O)NS(=O)(=O)c2c(C(=O)O)c(Cl)nn2C)n1` [HALOSULFURON] was tested, and the Activity [1] was 6%, the Activity [2] was 1% and the Activity [3] was 4%. The Activity [4] was 6%, the Activity [5] was 0% and the Activity [6] was 2%. It also gave an Activity [7] of 0%, an Activity [8] of 1% and an Activity [9] of 3%. The Activity [10] was 1%, the Activity [11] was 0% and the Activity [12] was 0%. For the same compound, the Activity [13] was 0%, the Activity [14] was 0% and the Activity [15] was 76 cm. For the same compound, the Activity [16] was 82 cm, the Activity [17] was 1% and the Activity [18] was 1%. The Crop_yield [19] was 12.8 tons/ha, the Activity [20] was 21% and the Crop_yield [21] was 16.4 tons/ha. The Crop_yield [22] was 19.3 tons/ha, the Activity [23] was 321 g and the Activity [24] was 316 g. It also gave an Activity [25] of 289 g, an Activity [26] of 299 g and an Activity [27] of 287 g. The Activity [28] was 81 cm, the Activity [29] was 2% and the Activity [30] was 1%. The Activity [31] was 0%, the Activity [32] was 5% and the Activity [33] was 7%. The Activity [34] was 76 cm.
